Test results published in patent US12194105B2, “Composition and method for new antimicrobial agents with secondary mode of action provided by conjugation of an antimicrobial to a guanidinium-rich molecular transporter” (The Board of Trustees of the Leland Stanford Junior …, priority 2018, dated 2025).
Converted amounts (≈) assume the structure as drawn. “Also recorded” adds a separate entry of the source. Like-named read-outs stand apart in the source and are kept apart here.

Columns and labels:
[1] = test system: MW2 stationary-phase cells; assay: Bacterial membrane integrity with SYTOX Green; details: V, V-r8 20 μM; lysostaphin 10×MIC
Excerpt: V-r8 mode-of-action analysis using stationary-phase MW2. All data points represent the median of biological duplicates from a representative experiment; all experiments were repeated on a different day to ensure reproducibility. V-r8 was the TFA salt, and PBS was used for the cell only control. […] Assay detection limit=2.3. […] Compound data was normalized to cell-only control data.
Evaluation of Bacterial Membrane Integrity with SYTOX Green. The SYTOX Green assay was adapted from the literature. Briefly, to a black wall clear-bottom 96-well plate (Costar 3603) was added 50 μL of PBS per well containing antibiotics at 2-times the indicated concentration. 1 mL of a stationary phase MW2 culture was pelleted at 10,000 g for 1 min and washed 3 times with the same volume of sterile-filtered PBS. The washed cells were diluted to OD600=0.1 (˜4×10^7 CFU/mL) with PBS. SYTOX Green (Molecular Probes) was added to the diluted stationary phase suspension for a final concentration of 5 μM and incubated for 0.5 h at room temperature in the dark. 50 μL of the bacteria/SYTOX Green mixture was added to each well of 96-well plates containing antibiotics and fluorescence was measured at 37° C. with shaking for up to 4 h using a spectrophotometer (SpectraMax M3, Molecular Devices) with excitation and emission wavelengths of 485 and 525 nm, respectively. Lysostaphin (1.25 μg/mL) was used as a positive control. The experiment was performed twice on separate days.

[2] = test system: MRSA USA300 LAC persister cells; assay: Time-kill of persister cells generated with ciprofloxacin; assay type: cell-based, Staphylococcus aureus; details: for killing of persister cells: in words
Protocol: FIG. 1. Time-kill study of MRSA USA300 LAC persister cells treated with vancomycin and V-r8. MRSA persister cells were generated by treatment with ciprofloxacin at 40 μM for 6 h. Vancomycin or V-r8 (TFA salt) was then introduced at a concentration of 10 μM. Data points are median Log(CFU/ml) values from 2 independent experiments (N=2) where treatments were performed in singlicate. Error bars represent IQR. Detection limit: 1 Log(CFU/ml).
Evaluation of antibacterial activity against persister cells. USA300 persister cells were generated by diluting an overnight culture of USA300 bacteria 1:1000 in 4 mL MHB and growing to OD 0.5 at 37° C. with 200 rpm shaking. […] Upon 6 h treatment with ciprofloxacin, 500 μL culture aliquots were added to Eppendorf tubes and compounds were added from concentrated stocks (mM range) to yield desired final concentrations (10-20 μM). […] CFU/ml were plated at indicated time points to monitor treatment efficacy. The experiment was performed at least twice on separate days.

MRSA USA300 biofilms = assay: Biofilm reduction in vitro after 5 h treatment, Calgary Biofilms Device; assay type: cell-based, Staphylococcus aureus; details: for Log CFU/ml counts: 5 h treatment, median (IQR), untreated 4.5, detection limit 2 Log
MRSA USA400 MW2 = assay: Time-kill in MHB; assay type: cell-based, Staphylococcus aureus; details: 20 μM; detection limit 2.3 Log(CFU/ml)
Protocol: FIG. 9. Influence of V and V-r8 (both at 20 μM) on cell viability for MRSA USA400 MW2 in MHB.

V. cholerae = assay: Time-kill study of V. cholerae; assay type: cell-based; details: equivalent concentrations
Protocol: FIG. 11A-11B. Time-kill study of V. cholerae treated with compounds. (FIG. 11A) Treatments were performed at 20 μM in media. (FIG. 11B) Treatments were performed at 2×MIC in PBS. Kan refers to kanamycin, a FDA-approved aminoglycoside. Data points are from a representative experiment. Detection limit=2.3 Log (CFU/ml).

MSSA (29213) [3] = test system: MSSA (29213)
Protocol: (§1) MICS were determined using broth microdilution in accordance with CLSI methods.^6 One day prior to each MIC experiment, bacterial strains were streaked for single colonies from frozen glycerol stocks stored at −80° C. on Tryptic soy agar. 3-5 colonies from each plate were harvested with a disposable inoculating loop and resuspended in 500 μL PBS. This suspension was diluted in sterile-filtered PBS to an OD of 0.1(˜1×10^8 CFU/ml), and the OD 0.1 suspension was diluted 1:100 in Mueller-Hinton Broth (MHB, Difco 257530) just prior to inoculating the 96-well polypropylene treatment plate. The treatment plate was prepared as follows: 20-fold stocks of the highest concentration of compound tested were prepared in sterile-filtered PBS and were subsequently diluted in MHB to prepare working stocks at 2-times the final concentration. 100 μL of each working stock was placed in the highest concentration treatment well, and the working stocks were 2-fold serially diluted in MHB to lend final treatment volumes of 50 μL/well. 50 μL of adjusted inoculum was added to each well to lend a total volume of 100 μL/well and a final inoculum density of ˜5×10^5 colony forming units (CFU/ml). 10 μL of inoculum in growth control wells was serially diluted in PBS and plated on Tryptic soy agar to verify accurate starting density of cells. Growth controls were included in each plate, where no treatment was applied, along with media only controls. Edge wells were filled with PBS. The completed assay plate was sealed with parafilm, placed in a lidded plastic tray lined with moistened paper towels, and incubated at 37° C. for 18-20 h.

MRSA (USA400MW2) [4] = test system: MRSA (USA400MW2)
Protocol: as §1

MRSA (USA300LAC) [5] = test system: MRSA (USA300LAC)
Protocol: (§2) Determination of MICs. MICS were determined using broth microdilution in accordance with CLSI methods.^6 One day prior to each MIC experiment, bacterial strains were streaked for single colonies from frozen glycerol stocks stored at −80° C. on Tryptic soy agar. 3-5 colonies from each plate were harvested with a disposable inoculating loop and resuspended in 500 μL PBS. This suspension was diluted in sterile-filtered PBS to an OD of 0.1(˜1×10^8 CFU/ml), and the OD 0.1 suspension was diluted 1:100 in Mueller-Hinton Broth (MHB, Difco 257530) just prior to inoculating the 96-well polypropylene treatment plate. The treatment plate was prepared as follows: 20-fold stocks of the highest concentration of compound tested were prepared in sterile-filtered PBS and were subsequently diluted in MHB to prepare working stocks at 2-times the final concentration. 100 μL of each working stock was placed in the highest concentration treatment well, and the working stocks were 2-fold serially diluted in MHB to lend final treatment volumes of 50 μL/well. 50 μL of adjusted inoculum was added to each well to lend a total volume of 100 μL/well and a final inoculum density of ˜5×10^5 colony forming units (CFU/ml). 10 μL of inoculum in growth control wells was serially diluted in PBS and plated on Tryptic soy agar to verify accurate starting density of cells. Growth controls were included in each plate, where no treatment was applied, along with media only controls. Edge wells were filled with PBS. The completed assay plate was sealed with parafilm, placed in a lidded plastic tray lined with moistened paper towels, and incubated at 37° C. for 18-20 h.

[6] = 0.05% V-r8, absence of bacteria
Protocol: To examine in vivo cytotoxicity, sterile wounds were generated and inoculated only with water (FIG. 8A) or 0.05% V-r8 (FIG. 8B) in the absence of bacteria. Wound tissue was harvested after 3 days and examined by Hematoxylin & Eosin staining. […] Epi: skin epidermis; Der: skin dermis. Scale bar represents 100 μm. Images are representative of 3 independent samples.
In vivo histological cytotoxicity assessment. […] Samples were fixed in 4% paraformaldehyde in PBS and incubated in 20% sucrose for 24 hours. Tissues were then embedded into Optical Cutting Temperature (OCT) compound (Sakura, California) and snap frozen in liquid nitrogen. 12 μm sections were obtained on a Leica CM1860 UV cryotome (Leica Biosystems, Ernst-Leitz Strasse, Germany), stained with hemotoxylin and eosin (H&E), and visualized using an Axio Scan.Z1 slide scanner (Carl Zeiss, Göttingen, Germany) under 20×/0.8 Apochrome objective as previously described.

E. faecium Van-Resistant [7] = test system: E. faecium Van-Resistant
Protocol: as §1

[8] = test system: V. cholerae El Tor A1552R
E. coli UTI89 [9] = test system: E. coli UTI89
Protocol: as §1

P. aeruginosa PA14 [10] = details: P. aeruginosa PA14, one trial only
Protocol: (§3) Determination of MICs. MICS were determined using broth microdilution in accordance with CLSI methods.^6 One day prior to each MIC experiment, bacterial strains were streaked for single colonies from frozen glycerol stocks stored at −80° C. on Tryptic soy agar. 3-5 colonies from each plate were harvested with a disposable inoculating loop and resuspended in 500 μL PBS. This suspension was diluted in sterile-filtered PBS to an OD of 0.1(˜1×10^8 CFU/ml), and the OD 0.1 suspension was diluted 1:100 in Mueller-Hinton Broth (MHB, Difco 257530) just prior to inoculating the 96-well polypropylene treatment plate. The treatment plate was prepared as follows: 20-fold stocks of the highest concentration of compound tested were prepared in sterile-filtered PBS and were subsequently diluted in MHB to prepare working stocks at 2-times the final concentration. 100 μL of each working stock was placed in the highest concentration treatment well, and the working stocks were 2-fold serially diluted in MHB to lend final treatment volumes of 50 μL/well. 50 μL of adjusted inoculum was added to each well to lend a total volume of 100 μL/well and a final inoculum density of ˜5×10^5 colony forming units (CFU/ml). 10 μL of inoculum in growth control wells was serially diluted in PBS and plated on Tryptic soy agar to verify accurate starting density of cells. […]

USA300 LAC biofilm wound = assay: Murine skin wound excisional biofilm model; details: 0.05% solution topical, 5 h treatment, 24 h post infection, compared to untreated mice
planktonic S. aureus = assay: Antibacterial activity against planktonic bacteria (summary over strains); details: in words
Protocol: as §3

[11] = test system: E. faecalis Van-Resistant
Protocol: as §1

MSSA (29213) [12] = assay: microbe, parasite or virus in culture; details: Staphylococcus aureus, read-out: Minimum Inhibitory Concentration (MIC)
Protocol: as §1

MRSA (USA400MW2) [13] = assay: microbe, parasite or virus in culture; details: Staphylococcus aureus, read-out: Minimum Inhibitory Concentration (MIC)
Protocol: as §1

MRSA (USA300LAC) [14] = assay: microbe, parasite or virus in culture; details: Staphylococcus aureus, read-out: Minimum Inhibitory Concentration (MIC)
Protocol: as §2

[15] = test system: E. faecium Van-Susceptible; assay: microbe, parasite or virus in culture; details: Enterococcus faecium, read-out: E. faecium MICs Van-Susceptible
Protocol: as §3

E. faecium Van-Resistant [16] = assay: microbe, parasite or virus in culture; details: Enterococcus faecium, read-out: E. faecium MICs Van-Resistant
Protocol: as §1

[17] = test system: E. faecalis Van-Susceptible; assay: microbe, parasite or virus in culture; details: Enterococcus faecalis, read-out: E. faecalis MICs Van-Susceptible
Protocol: as §3

[18] = test system: E. faecalis Van-Resistant; assay: microbe, parasite or virus in culture; details: Enterococcus faecalis, read-out: E. faecalis MICs Van-Resistant
Protocol: as §1

[19] = test system: V. cholerae El Tor A1552R; assay: microbe, parasite or virus in culture; details: Vibrio cholerae, ELTORA1552R, read-out: Median MIC
E. coli UTI89 [20] = assay: microbe, parasite or virus in culture; details: Escherichia coli, UTI89, read-out: Median MIC
Protocol: as §1

P. aeruginosa PA14 [21] = assay: microbe, parasite or virus in culture; details: Pseudomonas aeruginosa, PA14, read-out: Median MIC
Protocol: as §3

H. pylori = assay: MIC, Gram-negative planktonic strains; details: Helicobacter pylori
Protocol: as §3

A. baumannii = assay: MIC, Gram-negative planktonic strains; details: Acinetobacter baumannii
Protocol: as §3

[22] = test system: E. faecium Van-Susceptible
Protocol: as §3

[23] = test system: E. faecalis Van-Susceptible
Protocol: as §3

[24] = median (IQR), MSSA (29213), 24 h treatment in media
[25] = median (IQR), MRSA (USA300LAC), 24 h treatment in media

Protocol for MRSA (USA300LAC) biofilm: (§4) Determination of MBECs. Minimum Biofilm Eradication Concentrations (MBECs) were determined in accordance with literature methods. Prior to each assay, 4 mL Tryptic Soy broth (TSB) was inoculated with one colony of S. aureus 29213, MW2 or USA300 and incubated at 37° C., 200 rpm shaking until stationary phase was reached (OD>2). The cultures were adjusted to in TSB to achieve a final inoculum density of 1×10^7 CFU/ml, and 150 μL of inoculum was added to each well of a 96-well base plate (Nunc™ 269787), and a plate lid containing 96 pegs (Nunc™ 445497) was added to the base. The entire apparatus was sealed with parafilm and placed in a sealed plastic bag lined with moistened paper towels for 48 h growth with shaking (150 rpm) at 35° C.
(§5) To prepare biofilm treatment plates, 20-fold stocks of the highest concentration tested were made in sterile-filtered PBS. The 20-fold stocks were diluted in TSB to yield 2-fold working stocks; 200 μL of working stock was added to the highest concentration treatment well and 2-fold serially diluted across the plate to lend final treatment volumes of 100 μL/well. TSB was added to treatment wells to yield final volume of 200 μL/well. PBS was added to the edge wells of the 96-well plate.
(§6) Prior to treatment, 48 h biofilms were rinsed in a 96-well plate containing 200 μL PBS/well for one minute and then the peg lid was transferred to the treatment plate. The plate was parafilmed and incubated at 35° C. for 24 h with 150 rpm shaking. Upon 24 h treatment, the peg lid was removed, rinsed in 200 μL PBS buffer twice for 1 min each, then transferred to a recovery plate containing 200 μL TSB+1% Tween-20 per well. The apparatus was placed in a steel tray and sonicated in a water bath sonicator (Branson 1510) for 10 min to dislodge biofilms. The peg lid was subsequently removed and the media-containing plate was incubated for 20 h at 35° C. with 150 rpm shaking to recover biofilms. The MBEC was read as the lowest treatment concentration where no growth occurred, as determined by measuring by OD600 on a plate reader. […]
Protocol for MRSA (USA400MW2) biofilm: as §4
To prepare biofilm treatment plates, 20-fold stocks of the highest concentration tested were made in sterile-filtered PBS. […]
Prior to treatment, 48 h biofilms were rinsed in a 96-well plate containing 200 μL PBS/well for one minute and then the peg lid was transferred to the treatment plate. […] The MBEC was read as the lowest treatment concentration where no growth occurred, as determined by measuring by OD600 on a plate reader. […]
Protocol for MSSA (29213) biofilm: as §4, §5, §6
Protocol for S. aureus biofilms: as §4, §5
Prior to treatment, 48 h biofilms were rinsed in a 96-well plate containing 200 μL PBS/well for one minute and then the peg lid was transferred to the treatment plate. The plate was parafilmed and incubated at 35° C. for 24 h with 150 rpm shaking. Upon 24 h treatment, the peg lid was removed, rinsed in 200 μL PBS buffer twice for 1 min each, then transferred to a recovery plate containing 200 μL TSB+1% Tween-20 per well. The apparatus was placed in a steel tray and sonicated in a water bath sonicator (Branson 1510) for 10 min to dislodge biofilms. The peg lid was subsequently removed and the media-containing plate was incubated for 20 h at 35° C. with 150 rpm shaking to recover biofilms. The MBEC was read as the lowest treatment concentration where no growth occurred, as determined by measuring by OD600 on a plate reader. The values reported are median values from a minimum of two experiments performed on different days.

## Lysostaphin: an antibacterial enzyme that induces membrane permeabilization, positive control
[1]
  SYTOX Green uptake (membrane damage): Rapid uptake of SYTOX Green

## CN[C@H](CC(C)C)C(=O)N[C@H]1C(=O)N[C@@H](CC(N)=O)C(=O)N[C@H]2C(=O)N[C@H]3C(=O)N[C@H](C(=O)N[C@H](C(=O)NCCCCCC(=O)N[C@H](CCCNC(=N)N)C(=O)N[C@H](CCCNC(=N)N)C(=O)N[C@H](CCCNC(=N)N)C(=O)N[C@H](CCCNC(=N)N)C(=O)N[C@H](CCCNC(=N)N)C(=O)N[C@H](CCCNC(=N)N)C(=O)N[C@H](CCCNC(=N)N)C(=O)N[C@H](CCCNC(=N)N)C(N)=O)c4cc(O)cc(O)c4-c4cc3ccc4O)[C@H](O)c3ccc(c(Cl)c3)Oc3cc2cc(c3O[C@@H]2O[C@H](CO)[C@@H](O)[C@H](O)[C@H]2O[C@H]2C[C@](C)(N)[C@H](O)[C@H](C)O2)Oc2ccc(cc2Cl)[C@H]1O [V-r8, vancomycin-D-octaarginine]
[2]; at 20 μM
  efficacy against persister cells relative to vancomycin: > 1500 fold
[2]
  killing of persister cells: enhanced killing of persister cells
MRSA USA300 biofilms; 16 μM in PBS
  Log CFU/ml counts: 2.2 (0.2) Log CFU/ml
MRSA USA300 biofilms; 32 μM in PBS
  Log CFU/ml counts: 2.0 (0) Log CFU/ml
MRSA USA300 biofilms; 5 h treatment at 16 and 32 μM
  biofilm-associated MRSA eradicated: 98%
MRSA USA400 MW2
  cell killing, time-kill in MHB: rapid killing; also recorded: eradicated MRSA to the CFU/ml detection limit
V. cholerae; after 4 h
  killing relative to V, r8 and untreated cells: ~5 orders of magnitude
V. cholerae; over the first 2 h
  higher killing than kanamycin: 2-3 orders of magnitude
MSSA (29213) [3]; median (IQR), MSSA (29213)
  Minimum Inhibitory Concentration (MIC): 1.6 (0.5) μM
MRSA (USA400MW2) [4]; median (IQR), MRSA (USA400MW2)
  Minimum Inhibitory Concentration (MIC): 0.94 (0.2) μM
MRSA (USA300LAC) [5]; median (IQR), MRSA (USA300LAC)
  Minimum Inhibitory Concentration (MIC): 2.0 (0.1) μM
MSSA (29213) biofilm; [24]
  Minimum Biofilm Eradication Concentration (MBEC): 16 µM
MRSA (USA300LAC) biofilm; [25]
  Minimum Biofilm Eradication Concentration (MBEC): 9.5 µM
[6]
  acute toxicity, open wound: no acute toxicity
E. faecium Van-Resistant [7]
  improvement against VRE faecium (over vancomycin): 128 fold
[8]
  Median MIC: 10 µM
E. coli UTI89 [9]; E. coli UTI89
  Median MIC: ≥32 µM
P. aeruginosa PA14 [10]
  Median MIC: >32 µM
S. aureus biofilms; in PBS
  better potency over vancomycin in diminishing growth of biofilm-associated bacteria: 160 fold
S. aureus biofilms; in media
  better potency over vancomycin in diminishing growth of biofilm-associated bacteria: > 31 fold
S. aureus biofilms; range over S. aureus strains of Table 1
  minimum biofilm eradication concentrations (MBECs): 2.5 to 16 µM
USA300 LAC biofilm wound
  reduction in biofilm bacterial load (CFU/wound): significant reduction; also recorded: as effective as 2% fusidic acid
[1]
  SYTOX Green uptake (membrane damage): no SYTOX Green uptake
Planktonic S. aureus
  antimicrobial activity against planktonic S. aureus: single digit micromolar

## CN[C@H](CC(C)C)C(=O)N[C@H]1C(=O)N[C@@H](CC(N)=O)C(=O)N[C@H]2C(=O)N[C@H]3C(=O)N[C@H](C(=O)N[C@H](C(=O)O)c4cc(O)cc(O)c4-c4cc3ccc4O)[C@H](O)c3ccc(c(Cl)c3)Oc3cc2cc(c3O[C@@H]2O[C@H](CO)[C@@H](O)[C@H](O)[C@H]2O[C@H]2C[C@](C)(N)[C@H](O)[C@H](C)O2)Oc2ccc(cc2Cl)[C@H]1O [Vancomycin]
[2]
  killing of persister cells: ineffective
MRSA USA300 biofilms; 16 μM in PBS
  Log CFU/ml counts: 4.3 (0.3) Log CFU/ml
MRSA USA300 biofilms; 32 μM in PBS
  Log CFU/ml counts: 5.1 (1.0) Log CFU/ml
MRSA USA300 biofilms; 16 and 32 μM, in words
  killing of biofilms after 5 h treatment: ineffective
MRSA USA400 MW2
  cell killing, time-kill in MHB: required longer treatment time
MSSA (29213) biofilm; [24]
  Minimum Biofilm Eradication Concentration (MBEC): ≥500 µM
MRSA (USA400MW2) biofilm; median (IQR), MRSA (USA400MW2), 24 h treatment in media
  Minimum Biofilm Eradication Concentration (MBEC): ≥500 µM
MRSA (USA300LAC) biofilm; [25]
  Minimum Biofilm Eradication Concentration (MBEC): ≥400 µM
E. faecium Van-Resistant [7]; resistant versus susceptible
  increase of MIC in VRE faecium: > 1350 fold
[11]; resistant versus susceptible
  increase of MIC in VRE faecalis: > 85 fold
MSSA (29213) [12]
  MIC: 0.5 µM (≈ 0.725 µg/mL)
MRSA (USA400MW2) [13]
  MIC: 0.5 µM (≈ 0.725 µg/mL)
MRSA (USA300LAC) [14]
  MIC: 0.5 µM (≈ 0.725 µg/mL)
[15]
  MIC: 0.375 µM (≈ 0.543 µg/mL)
E. faecium Van-Resistant [16]
  MIC: 512 µM (≈ 742 µg/mL)
[17]
  MIC: 1.5 µM (≈ 2.17 µg/mL)
[18]
  MIC: 128 µM (≈ 186 µg/mL)
[19]
  MIC: 100 µM (≈ 145 µg/mL)
E. coli UTI89 [20]
  MIC: > 128 µM
P. aeruginosa PA14 [21]
  MIC: > 256 µM
H. pylori
  MIC: > 32 µM
A. baumannii
  MIC: > 32 µM
USA300 LAC biofilm wound
  reduction in biofilm bacterial load (CFU/wound): not statistically significant
[1]
  SYTOX Green uptake (membrane damage): no SYTOX Green uptake

## N=C(N)NCCC[C@@H](N)C(=O)N[C@H](CCCNC(=N)N)C(=O)N[C@H](CCCNC(=N)N)C(=O)N[C@H](CCCNC(=N)N)C(=O)N[C@H](CCCNC(=N)N)C(=O)N[C@H](CCCNC(=N)N)C(=O)N[C@H](CCCNC(=N)N)C(=O)N[C@H](CCCNC(=N)N)C(N)=O [r8, octa-D-arginine]
[2]
  killing of persister cells: no activity
MSSA (29213) [3]; 29213
  Minimum Inhibitory Concentration (MIC): 60 (20) μM
MRSA (USA400MW2) [4]; USA400
  Minimum Inhibitory Concentration (MIC): 20 (0) μM
MRSA (USA300LAC) [5]; USA300
  Minimum Inhibitory Concentration (MIC): 40 (0) μM
MSSA (29213) biofilm; 29213) biofilm, 24 h
  Minimum Biofilm Eradication Concentration (MBEC): >80 µM
MRSA (USA400MW2) biofilm; USA400, 24 h
  Minimum Biofilm Eradication Concentration (MBEC): >80 µM
MRSA (USA300LAC) biofilm; USA300, 24 h
  Minimum Biofilm Eradication Concentration (MBEC): >80 µM
[22]
  E. faecium MICs Van-Susceptible: >64 µM
E. faecium Van-Resistant [7]; Van-Resistant
  E. faecium MICs Van-Resistant: >128 µM
[23]
  E. faecalis MICs Van-Susceptible: >64 µM
[11]; Van-Resistant
  E. faecalis MICs Van-Resistant: >64 µM
E. coli UTI89 [9]; UTI89
  Median MIC: 36 µM
S. aureus biofilms; in words
  ability to eradicate biofilms: unable to eradicate biofilms
